According to patent US7495018B2, “Substituted 1,3-thiazole compounds, their production and use” (Takeda Pharmaceutical Company Limited, priority 2000, dated 2009):

tested on: not given; assay: not given; conditions: not given

Row | melting point | SMILES
1 | 190 to 191 °C | CCc1nc(-c2ccc(F)cc2)c(-c2ccnc(NC(C)=O)c2)s1 [Example 82-2, N-[4-[2-ethyl-4-(4-fluorophenyl)-1,3-thiazol-5-yl]-2-pyridyl]acetamide]
2 | 116 to 117 °C | CCc1nc(-c2cccc(C(C)C)c2)c(-c2ccnc(NC(C)=O)c2)s1 [Example 82-8, N-[4-[2-ethyl-4-[3-(1-methylethyl)phenyl]-1,3thiazol-5-yl]-2-pyridyl]acetamide]
3 | 181 to 182 °C | CSc1ccc(-c2nc(-c3cccc(C)c3)c(-c3ccnc(NC(C)=O)c3)s2)cc1 [Example 82-12, N-[4-[4-(3-methylphenyl)-2-[4-(methylthio)phenyl]-1,3-thiazol-5-yl]-2-pyridyl]acetamide]
4 | 98 to 99 °C | CSCCc1nc(-c2cccc(C)c2)c(-c2ccnc(N)c2)s1 [Example 99-1, 4-[4-(3-methylphenyl)-2-[2-(methylthio)ethyl]-1,3-thiazol-5-yl]-2-pyridylamine]
5 | 121 to 122 °C | CCc1nc(-c2cccc(Cl)c2)c(-c2ccnc(NC(=O)CC3CCCC3)c2)s1 [Example 90-1, N-[4-[4-(3-chlorophenyl)-2-ethyl-1,3-thiazol-5-yl]-2-pyridyl]cyclopentylacetamide]
6 | 102 to 103 °C | CCC(=O)Nc1cc(-c2sc(C(C)OC(=O)c3ccccc3)nc2-c2cccc(C)c2)ccn1 (centres unmarked) [Example 102-5, 1-[4-(3-methylphenyl)-5-(2-propionylamino-4-pyridyl)-1,3-thiazol-2-yl]ethyl benzoate]
7 | 142 to 145 °C | CC(=O)Nc1cc(-c2sc(C(C)O)nc2-c2cccc(Cl)c2)ccn1 (centres unmarked) [Example 111-2, N-[4-[4-(3-chlorophenyl)-2-(1-hydroxyethyl)-1,3-thiazol-5-yl]-2-pyridyl]acetamide]
8 | 105 to 107 °C | CCC(=O)Nc1cc(-c2sc(CC)nc2-c2ccc(F)c(C)c2)ccn1 [Example 84-4, N-[4-[2-ethyl-4-(4-fluoro-3-methylphenyl)-1,3-thiazol-5-yl]-2-pyridyl]propionamide]

More lines, now with the values behind:

Row | SMILES | melting point
9 | Cc1cccc(-c2nc(N(C)C(=O)c3ccc(C)nc3)sc2-c2ccnc(NC3CCCC3)c2)c1 [Example Compound 46-4, N-[5-(2-cyclopentylamino-4-pyridyl)-4-(3-methylphenyl)-1,3-thiazol-2-yl]-N,6-dimethylnicotinamide] | 117 to 118 °C
10 | COc1ccc(-c2nc(NC(C)=O)sc2-c2ccnc(N)c2)cc1 [Example Compound 50, N-[5-(2-amino-4-pyridyl)-4-(4-methoxyphenyl)-1,3-thiazol-2-yl]acetamide] | 247 to 250 °C
11 | Cc1cccc(-c2nc(NC(=O)c3ccc(Cl)nc3)sc2-c2ccnc(C)c2)c1 [Example Compound 43, 6-chloro-N-[4-(3-methylphenyl)-5-(2-methyl-4-pyridyl)-1,3-thiazol-2-yl]nicotinamide] | 228 to 230 °C
12 | Cc1cc(C)cc(-c2nc(NC(=O)c3cccnc3)sc2-c2cc(C)nc(C)c2)c1 [Example Compound 42-2, N-[4-(3,5-dimethylphenyl)-5-(2,6-dimethyl-4-pyridyl)-1,3-thiazol-2-yl]nicotinamide] | 267 to 268 °C
13 | Cc1cccc(-c2nc(N3CCNC3=O)sc2-c2ccnc(C)c2)c1 [Example Compound 66, 1-[4-(3-methylphenyl)-5-(2-methyl-4-pyridyl)-1,3-thiazol-2-yl]imidazolidin-2-one] | 200 to 201 °C
14 | CCC(=O)Nc1cc(-c2sc(C(C)=O)nc2-c2cccc(Cl)c2)ccn1 [Example 107, N-[4-[2-acetyl-4-(3-chlorophenyl)-1,3-thiazol-5-yl]-2-pyridyl]propionamide] | 115 to 117 °C
15 | COc1cccc(-c2nc(N)sc2-c2ccnc(F)c2)c1 [Example Compound 7-1, [5-(2-fluoro-4-pyridyl)-4-(3-methoxyphenyl)-1,3-thiazol-2-yl]amine] | 190 to 191 °C
16 | Cc1cc(C)cc(-c2nc(N)sc2-c2cc(C)nc(C)c2)c1 [Example Compound 7-7, [4-(3,5-dimethylphenyl)-5-(2,6-dimethyl-4-pyridyl)-1,3-thiazol-2-yl]amine] | 256 to 258 °C
17 | CCc1nc(-c2cccc(C)c2)c(-c2ccnc(NCC3CCCC3)c2)s1 [Example Compound 32, N-(cyclopentylmethyl)-4-[2-ethyl-4-(3-methylphenyl)-1,3-thiazol-5-yl]-2-pyridylamine] | 67 to 69 °C
18 | Cc1cc(C)cc(-c2nc(-c3ccc([S+](C)[O-])cc3)sc2-c2cc(C)nc(C)c2)c1 (centres unmarked) [Example Compound 56-2, 4-(3,5-dimethylphenyl)-5-(2,6-dimethyl-4-pyridyl)-2-(4-methylsulfinylphenyl)-1,3-thiazole] | 151 to 154 °C
19 | CSCc1nc(-c2cccc(Cl)c2)c(-c2ccnc(N)c2)s1 | 111 to 112 °C
20 | CCC(=O)Nc1cc(-c2sc(C3CCNCC3)nc2-c2cccc(Cl)c2)ccn1.Cl.Cl | 202 to 203 °C
21 | COc1ccc(C(=O)Nc2nc(-c3cc(C)cc(C)c3)c(-c3ccnc(C)c3)s2)cn1 [Example Compound 48-3, N-[4-(3,5-dimethylphenyl)-5-(2-methyl-4-pyridyl)-1,3-thiazol-2-yl]-6-methoxynicotinamide] | 242 to 244 °C
22 | CCc1nc(-c2cccc(C)c2)c(-c2ccnc(NC(=O)CC3CCCC3)c2)s1 [Example 89, N-[4-[2-ethyl-4-(3-methylphenyl)-1,3-thiazol-5-yl]-2-pyridyl]cyclopentylacetamide] | 85 to 86 °C
23 | CCc1nc(-c2cccc(Cl)c2)c(-c2ccnc(NC(C)=O)c2)s1 [Example Compound 30-2, N-[4-[4-(3-chlorophenyl)-2-ethyl-1,3-thiazol-5-yl]-2-pyridyl]acetamide] | 149 to 150 °C
24 | Cc1cccc(-c2nc(-c3ccc(S(C)(=O)=O)cc3)sc2-c2ccnc(N3CCCC3)c2)c1 [Example Compound 37-4, 4-(3-methylphenyl)-2-(4-methylsulfonylphenyl)-5-[2-(1-pyrrolidinyl)-4-pyridyl]-1,3-thiazole] | 199 to 201 °C
25 | CSc1ccc(-c2nc(-c3cc(C)cc(C)c3)c(-c3cc(C)nc(C)c3)s2)cc1 [Example Compound 16-4, 4-(3,5-dimethylphenyl)-5-(2,6-dimethyl-4-pyridyl)-2-[4-(methylthio)phenyl]-1,3-thiazole] | 134 to 136 °C
26 | Cc1nc(-c2cccc(Cl)c2)c(-c2ccnc(N)c2)s1 [Example Compound 27-2, 4-[4-(3-chlorophenyl)-2-methyl-1,3-thiazol-5-yl]-2-pyridylamine] | 142 to 143 °C
27 | Cc1cccc(-c2nc(-c3ccc(S(C)(=O)=O)cc3)sc2-c2ccnc(F)c2)c1 [Example Compound 58-4, 5-(2-fluoro-4-pyridyl)-4-(3-methylphenyl)-2-(4-methylsulfonylphenyl)-1,3-thiazole] | 195 to 199 °C
28 | Cc1cccc(-c2nc(N(C)C(=O)c3cccnc3)sc2-c2ccnc(NC3CCCCC3)c2)c1 [Example Compound 42-8, N-[5-(2-cyclohexylamino-4-pyridyl)-4-(3-methylphenyl)-1,3-thiazol-2-yl]-N-methylnicotinamide] | 147 to 148 °C
29 | CCC(=O)Nc1cc(-c2sc(C)nc2-c2cccc(Cl)c2)ccn1 [Example Compound 30-7, N-[4-[4-(3-chlorophenyl)-2-methyl-1,3-thiazol-5-yl]-2-pyridyl]propionamide] | 134 to 135 °C

tested on: TNF-α production in THP-1 cells; assay: Inhibitory activity of TNF-α production in LPS-stimulated THP-1 cells; assay type: cell-based; conditions: Homo sapiens, LPS 5 μg/mL, 4 hours, TNF-α by ELISA, read-out: IC50 (concentration inhibiting 50% of TNF-α production)
Description: Measurement of Inhibitory Activity of TNF-α Production
THP-1 cells cultured in a PRMI 1640 medium (Life Technologies, Inc., USA) containing 1% inactivated fetal bovine serum (Life Technologies, Inc.) and 10 mM HEPES (pH 7.5) were inoculated on a 96 well plate to give 1×10^5 cells/well, then, 1 μL of a sample compound dissolved in DMSO was added. After incubation for 1 hour at 37° C. in a CO2 incubator, LPS (Wako Pure Chemical Industries Ltd.) was added to give a final concentration of 5 μg/mL. After incubation for 4 hours at 37° C. in a CO2 incubator, the supernatant was obtained by centrifugal separation. The TNF-α concentration in the supernatant was measured by ELISA (R&D Systems, Quantikine Kit). The concentration (IC50 value) of a sample compound necessary for inhibiting 50% of TNF-α production was calculated by PRISM 2.01 (GraphPad Software).

Row | IC50 | SMILES
30 | 0.12 µM | CCc1nc(-c2cccc(Cl)c2)c(-c2ccnc(NC(C)=O)c2)s1 [Example 30-2, N-[4-[4-(3-chlorophenyl)-2-ethyl-1,3-thiazol-5-yl]-2-pyridyl]acetamide]
31 | 0.055 µM | CCc1nc(-c2cccc(Cl)c2)c(-c2ccnc(NC3CCCCC3)c2)s1 [Example 36-10, 4-[4-(3-chlorophenyl)-2-ethyl-1,3-thiazol-5-yl]-N-cyclohexyl-2-pyridylamine]
32 | 0.021 µM | CCC(=O)Nc1cc(-c2sc(-c3ccc(S(C)(=O)=O)cc3)nc2-c2cccc(Cl)c2)ccn1 [Example 58-7, N-[4-[4-(3-chlorophenyl)-2-(4-methylsulfonylphenyl)-1,3-thiazol-5-yl]-2-pyridyl]propionamide]
